Assay results reported in patent US20250163038A1, “CBL-B MODULATORS AND USES THEREOF” (Nimbus Clio, Inc., priority 2021, published 2025).
Counter-ions that a name gives are not always drawn. Like-named read-outs stand apart in the source and are kept apart here.

Assays:
[1] = biological target: Recombinant human Cbl-b (aa 36-427) (Homo sapiens, UniProt Q13191); test: Cbl-b Biochemical Assay (TR-FRET); conditions: read-out: TR-FRET hCbl-b IC50
[2] = biological target: T1, Recombinant human c-Cbl (aa 47-435) (Homo sapiens, UniProt P22681); test: c-Cbl Biochemical Assay (TR-FRET); conditions: hc-Cbl Biochemical Assay (TR-FRET); read-out: TR-FRET hcCbl IC50
T1 sequence (P22681 47-435): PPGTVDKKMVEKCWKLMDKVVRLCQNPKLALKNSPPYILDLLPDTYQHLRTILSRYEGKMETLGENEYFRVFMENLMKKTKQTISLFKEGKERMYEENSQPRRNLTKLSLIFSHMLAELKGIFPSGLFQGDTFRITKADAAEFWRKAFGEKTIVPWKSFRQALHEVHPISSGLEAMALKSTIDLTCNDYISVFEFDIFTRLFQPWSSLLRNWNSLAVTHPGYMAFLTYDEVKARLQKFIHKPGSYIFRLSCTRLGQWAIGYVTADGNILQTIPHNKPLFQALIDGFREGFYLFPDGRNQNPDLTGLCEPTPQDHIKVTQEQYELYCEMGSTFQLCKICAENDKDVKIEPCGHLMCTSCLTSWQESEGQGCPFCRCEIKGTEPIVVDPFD

[3] = tested on: Jurkat (clone E6-1) cells with NFAT luciferase reporter; test: Jurkat reporter assay (NFAT Luciferase); format: cell-based; conditions: Homo sapiens
[4] = Jurkat NFAT luciferase reporter cells, anti-CD3 stimulation, 6 hr, read-out: Jurkat NFAT EC50

Recombinant human Cbl-b (aa 36-427), sequence (Q13191 36-427): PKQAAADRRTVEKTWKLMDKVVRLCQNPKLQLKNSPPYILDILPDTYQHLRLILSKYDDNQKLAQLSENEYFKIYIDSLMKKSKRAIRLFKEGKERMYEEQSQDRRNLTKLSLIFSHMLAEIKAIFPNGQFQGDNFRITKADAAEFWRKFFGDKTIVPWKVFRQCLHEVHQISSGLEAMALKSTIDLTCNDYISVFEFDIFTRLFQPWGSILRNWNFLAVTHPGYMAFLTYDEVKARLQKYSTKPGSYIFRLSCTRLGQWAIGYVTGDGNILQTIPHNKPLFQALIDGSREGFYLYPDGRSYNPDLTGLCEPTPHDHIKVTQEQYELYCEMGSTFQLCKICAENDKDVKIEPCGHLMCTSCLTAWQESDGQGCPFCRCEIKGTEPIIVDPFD

Row | IC50 [1] [µM] | IC50 [2] [µM] | EC50 [3, 4] [µM] | Structure (SMILES) | EC50 ([3]; Jurkat, 6 h, read-out: Jurkat NFAT EC50 (μM)) [µM]
1 | < 0.2 | < 0.2 | < 0.2 | COCCNCc1cc2nc(-c3cc(-c4ccc(F)cc4-c4nncn4C)cc(C4CC4)n3)oc2c(F)c1F [AGB-1, [(2-{6-Cyclopropyl-4-[4-fluoro-2-(4-methyl-1,2,4-triazol-3-yl)phenyl]pyridin-2-yl}-6,7-difluoro-1,3-benzoxazol-5-yl)methyl](2-methoxyethyl)amine] | 
2 | < 0.2 | < 0.2 | < 0.2 | COc1cc(CN[C@@H]2CCC[C@@H]2O)cc2nc(-c3cc(-c4ccc(F)cc4-c4nncn4C)cc(C4CC4)n3)oc12 [AEY-2] | 
3 | 0.2 to 1 | 1 to 10 | 1 to 10 | COC(=O)C1(c2cc(F)c3oc(-c4cc(-c5ccc(F)cc5-c5nncn5C)cc(C5CC5)n4)nc3c2)CC1 [AGM-8, Methyl 1-(2-{6-cyclopropyl-4-[4-fluoro-2-(4-methyl-1,2,4-triazol-3-yl)phenyl]pyridin-2-yl}-7-fluoro-1,3-benzoxazol-5-yl) cyclopropane-1-carboxylate] | 
4 | 1 to 10 | 0.2 to 1 | 1 to 10 | CC(=O)NCc1cc(C(F)(F)F)c2oc(-c3cccc(-c4ccc(F)cc4-c4nncn4C)c3)nc2c1 [II-1, N-((2-(4′-Fluoro-2′-(4-methyl-4H-1,2,4-triazol-3-yl)-[1,1′-biphenyl]-3-yl)-7-(trifluoromethyl)benzo[d]oxazol-5-yl)methyl)acetamide] | 
5 | < 0.2 | < 0.2 | < 0.2 | Cn1cnnc1-c1cc(F)ccc1-c1cc(-c2nc3cc(CN[C@@H]4CCC[C@@H]4O)ccc3o2)cc(C2CC2)c1 [AEQ-2, (1S,2R)-2-[({2-[5-Cyclopropyl-4′-fluoro-2′-(4-methyl-1,2,4-triazol-3-yl)-[1,1′-biphenyl]-3-yl]-1,3-benzoxazol-5-yl}methyl)amino]cyclopentan-1-ol] | 
6 | < 0.2 | < 0.2 | < 0.2 | Cn1cnnc1-c1cc(F)ccc1-c1cccc(-c2nc3cc(CNCC4(O)CCCC4)cc(C(F)(F)F)c3[nH]2)c1 [CJ-1, 1-((((2-(4′-Fluoro-2′-(4-methyl-4H-1,2,4-triazol-3-yl)-[1,1′-biphenyl]-3-yl)-7-(trifluoromethyl)-1H-benzo[d]imidazol-5-yl)methyl)amino)methyl)cyclopentan-1-ol] | 
7 | < 0.2 | < 0.2 | < 0.2 | Cn1cnnc1-c1cc(F)ccc1-c1cccc(-c2nc3cc(CNCC4COC4)cc(C(F)(F)F)c3o2)c1 [GB-2, 1-(2-(4′-Fluoro-2′-(4-methyl-4H-1,2,4-triazol-3-yl)-[1,1′-biphenyl]-3-yl)-7-(trifluoromethyl)benzo[d]oxazol-5-yl)-N-(oxetan-3-ylmethyl)methanamine] | 
8 | < 0.2 | < 0.2 | < 0.2 | COc1cc(CNC[C@@H]2CCCO2)cc2nc(-c3cccc(-c4ccc(F)cc4-c4nncn4C)c3)oc12 [FS-2, (S)-1-(2-(4′-Fluoro-2′-(4-methyl-4H-1,2,4-triazol-3-yl)-[1,1′-biphenyl]-3-yl)-7-methoxybenzo[d]oxazol-5-yl)-N-((tetrahydrofuran-2-yl)methyl)methanamine] | 
9 | < 0.2 | < 0.2 | 0.2 to 1 | COc1cc(CNCC2CC2)cc2nc(-c3cccc(-c4ccc(F)cc4-c4nncn4C)c3)oc12 [FU-1, 1-Cyclopropyl-N-((2-(4′-fluoro-2′-(4-methyl-4H-1,2,4-triazol-3-yl)-[1,1′-biphenyl]-3-yl)-7-methoxybenzo[d]oxazol-5-yl)methyl)methanamine] | 
10 | 1 to 10 | 1 to 10 | 1 to 10 | COC(=O)c1cc2nc(-c3cc(-c4ccc(F)cc4-c4nncn4C)cc(C4CC4)n3)oc2c(F)c1F [AFW-1, Methyl 2-{6-cyclopropyl-4-[4-fluoro-2-(4-methyl-1,2,4-triazol-3-yl)phenyl]pyridin-2-yl}-6,7-difluoro-1,3-benzoxazole-5-carboxylate] | 
11 | < 0.2 | 1 to 10 | 0.2 to 1 | Cn1cnnc1-c1cc(F)ccc1-c1cccc(-c2nc3cc(CN4CCC5(CC4)CC5)cc(C(F)(F)F)c3[nH]2)c1 [BU-1, 5-((6-Azaspiro[2.5]octan-6-yl)methyl)-2-(4′-fluoro-2′-(4-methyl-4H-1,2,4-triazol-3-yl)-[1,1′-biphenyl]-3-yl)-7-(trifluoromethyl)-1H-benzo[d]imidazole] | 
12 | < 0.2 | 1 to 10 | 0.2 to 1 | Cn1cnnc1-c1cc(F)ccc1-c1cccc(-c2nc3cc(CN[C@@H]4CCC[C@H]4O)cc(C(F)(F)F)c3o2)c1 [Example W-2, (1R,2R)-2-(((2-(4′-Fluoro-2′-(4-methyl-4H-1,2,4-triazol-3-yl)-[1,1′-biphenyl]-3-yl)-7-(trifluoromethyl)benzo[d]oxazol-5-yl)methyl)amino)cyclopentan-1-ol] | 
13 | < 0.2 | < 0.2 | 0.2 to 1 | COC1(CNCc2cc(C(F)(F)F)c3oc(-c4cccc(-c5ccc(F)cc5-c5nncn5C)c4)nc3c2)CCC1 [DE-2, 1-(2-(4′-Fluoro-2′-(4-methyl-4H-1,2,4-triazol-3-yl)-[1,1′-biphenyl]-3-yl)-7-(trifluoromethyl)benzo[d]oxazol-5-yl)-N-((1-methoxycyclobutyl)methyl)methanamine] | 
14 | < 0.2 | < 0.2 | < 0.2 | CC(NCC1(O)CCC1)c1cc(C(F)(F)F)c2oc(-c3cccc(-c4ccc(F)cc4-c4nncn4C)c3)nc2c1 (stereo not drawn) [EF-1, 1-(((1-(2-(4′-Fluoro-2′-(4-methyl-4H-1,2,4-triazol-3-yl)-[1,1′-biphenyl]-3-yl)-7-(trifluoromethyl)benzo[d]oxazol-5-yl)ethyl)amino)methyl)cyclobutan-1-ol, formate] | 
15 | 0.2 to 1 | 0.2 to 1 | 0.2 to 1 | CO[C@H](C)[C@@H](C)NCc1cc(C)c2oc(-c3cc(-c4ccc(F)cc4-c4nncn4C)cc(C4CC4)n3)nc2c1 [AFZ-2, [(2-{6-Cyclopropyl-4-[4-fluoro-2-(4-methyl-1,2,4-triazol-3-yl)phenyl]pyridin-2-yl}-7-methyl-1,3-benzoxazol-5-yl)methyl][(2R,3R)-3-methoxybutan-2-yl]amine] | 
16 | < 0.2 | 1 to 10 | 1 to 10 | Cn1cnnc1-c1cc(F)ccc1-c1cccc(-c2nc3cc(CNC4(CO)COC4)cc(C(F)(F)F)c3o2)c1 [Example Z-2, (3-(((2-(4′-Fluoro-2′-(4-methyl-4H-1,2,4-triazol-3-yl)-[1,1′-biphenyl]-3-yl)-7-(trifluoromethyl)benzo[d]oxazol-5-yl)methyl)amino)oxetan-3-yl)methanol] | 
17 | < 0.2 | 1 to 10 | 1 to 10 | C[C@@H]1CN(Cc2cc(C(F)(F)F)c3[nH]c(-c4cccc(-c5ccc(F)cc5-c5nncn5C)c4)nc3c2)CCO1 [BL-2, (R)-4-((2-(4′-Fluoro-2′-(4-methyl-4H-1,2,4-triazol-3-yl)-[1,1′-biphenyl]-3-yl)-7-(trifluoromethyl)-1H-benzo[d]imidazol-5-yl)methyl)-2-methylmorpholine] | 
18 | < 0.2 | < 0.2 | < 0.2 | Cn1cnnc1-c1cc(F)ccc1-c1cc(-c2nc3cc(CN[C@@H]4CCC[C@@H]4O)ccc3o2)nc(C2CC2)c1 [AEH-2, (1S,2R)-2-{[(2-{6-Cyclopropyl-4-[4-fluoro-2-(4-methyl-1,2,4-triazol-3-yl)phenyl]pyridin-2-yl}-1,3-benzoxazol-5-yl)methyl]amino}cyclopentan-1-ol] | 
19 | < 0.2 | < 0.2 | < 0.2 | [2H]C([2H])(N[C@@H]1CCC[C@@H]1O)c1cc(C(F)(F)F)c2oc(-c3cccc(-c4ccc(F)cc4-c4nncn4C)c3)nc2c1 [HA-3, (1S,2R)-2-(((2-(4′-Fluoro-2′-(4-methyl-4H-1,2,4-triazol-3-yl)-[1,1′-biphenyl]-3-yl)-7-(trifluoromethyl)benzo[d]oxazol-5-yl)methyl-d2)amino)cyclopentan-1-ol] | 
20 | < 0.2 | < 0.2 | < 0.2 | COCCNCc1cc(C)c2oc(-c3cc(-c4ccc(F)cc4-c4nncn4C)cc(C4CC4)n3)nc2c1 [AEZ-1, [(2-{6-Cyclopropyl-4-[4-fluoro-2-(4-methyl-1,2,4-triazol-3-yl)phenyl]pyridin-2-yl}-7-methyl-1,3-benzoxazol-5-yl)methyl](2-methoxyethyl)amine] | 

Row | Structure (SMILES) | IC50 [1] [µM] | IC50 [2] [µM] | EC50 [3, 4] [µM] | EC50 ([3]; Jurkat, 6 h, read-out: Jurkat NFAT EC50 (μM)) [µM]
21 | Cn1cnnc1-c1cc(F)ccc1-c1cccc(-c2nc3cc(CN[C@H]4CCC[C@H]4O)cc(C(F)(F)F)c3o2)c1 [HI-2, (1R,2S)-2-(((2-(4′-Fluoro-2′-(4-methyl-4H-1,2,4-triazol-3-yl)-[1,1′-biphenyl]-3-yl)-7-(trifluoromethyl)benzo[d]oxazol-5-yl)methyl)amino)cyclopentan-1-ol] | < 0.2 | < 0.2 | < 0.2 | 
22 | C[C@H]1CCCN(Cc2cc(C(F)(F)F)c3oc(-c4cc(-c5ccccc5-c5nncn5C)cc(C5CC5)n4)nc3c2)C1 [AAP-7, 2-{6-Cyclopropyl-4-[2-(4-methyl-1,2,4-triazol-3-yl)phenyl]pyridin-2-yl}-5-{[(3S)-3-methylpiperidin-1-yl]methyl}-7-(trifluoromethyl)-1,3-benzoxazole] | < 0.2 | 1 to 10 |  | 0.2 to 1
